# Assay results taken from US20060020022A1, “Enantioselective separation method” (PHARMACIA & UPJOHN COMPANY LLC, priority 2004, published 2006).
# Tests used:
# [1] = Photoracemization in ethanol in a 400-mL photoreactor with 450 W UV lamp, e.e. by enantioselective HPLC; assay type: physicochemical
# Experimental: The mixture was irradiated and aliquots were taken at about time=0, 12, 24, 41, 60, 87, 105, 135, and 162 minutes and analyzed by HPLC.
# The natural logarithm of e.e. at each time point was determined for each aliquot.
# Half-lives (minutes) and specific half-lives (minutes per gram) were calculated for each concentration.
# Using the procedure of Example (E), 10-g of (R)-8-ethyl-6-trifluoromethoxy-2-trifluoromethyl-2H-chromene-3-carboxylic acid was dissolved in 400 mL of ethanol to a concentration of 25-mg/mL, and the mixture was filtered to remove a small amount of insoluble material. The filtrate was placed in the photoreactor and irradiated.
# Using the procedure of Example (E), 10-g of (R)-6,8-dimethyl-2-trifluoromethyl-2H-chromene-3-carboxylic acid was dissolved in 400 mL of ethanol to a concentration of 25-mg/mL, and the mixture was filtered to remove a small amount of insoluble material. The filtrate was placed in the photoreactor and irradiated.
# [2] = Photoracemization in ethanol in a quartz cuvette under a UV spot lamp, e.e. by enantioselective HPLC; assay type: physicochemical; conditions: for e.e. by HPLC after irradiation: 50-mg/mL in ethanol, start 21% e.e. of (S), 4 W/cm^2; for ln (e.e.): 66.7-mg/mL in ethanol
# Experimental: Using a column with 0.46 cm inner diameter and 250 mm length filled with […]® AD stationary phase, a 10 μL injection volume, by eluting at room temperature with mobile phase (volume proportions) 95%/5% heptane:ethanol with 0.1% trifluoroacetic acid, at room temperature, flow rate at 1 mL/minute isocratic, and detected with a photodiode array detector at 254 nm wavelength, and a run time of 10 minutes.
# A 1.0-mg/mL solution of (S)-6-chloro-7-tert-butyl-2-trifluoromethyl-2H-chromene-3-carboxylic acid in ethanol was placed in a quartz cuvette and irradiated with light from a UV spot lamp that produced a 5 mm diameter spot of UV light (320-390 nm wavelength) at 4 W/cm^2 intensity.
# The first aliquot was placed in a quartz cuvette and irradiated in 90-second intervals over 25 minutes with light from a UV spot lamp that produced a 5 mm diameter spot of UV light (320-390 nm wavelength) at 4 W/cm^2 intensity to give a solution with 7.4% e.e. by HPLC. The second aliquot was placed in a quartz cuvette and irradiated continuously over 25 minutes with light from the UV spot lamp to give a solution with 12% e.e. by HPLC.
# A 40-mg/mL solution of (S)-6-chloro-7-tert-butyl-2-trifluoromethyl-2H-chromene-3-carboxylic acid in ethanol was placed in a quartz cuvette and irradiated with light from a UV spot lamp that produced a 5 mm diameter spot of UV light (320-390 nm wavelength) at 4 W/cm^2 intensity. Aliquots were taken at time=0, 1, 2, 4, 8, 12, and 16 minutes and analyzed by HPLC. The experiment was repeated. A rate constant k for each of the two experiments (k1 and k2) was calculated using the following equation: [formula] wherein t is the time in minutes, C is the concentration of chromene in moles per liter, and ln (e.e.) is the natural logarithm of percent enantiomeric excess. The rate constant k1 was 0.0764/minute and k2 was 0.0787/minute. A half-live τ for each of the two experiments (τ1 and τ2) was calculated using the following equation: [formula] […] A specific half-life of about 30 minutes per gram of enantiomer was calculated.
# The procedure of Example (C) was repeated except the concentration of (S)-6-chloro-7-tert-butyl-2-trifluoromethyl-2H-chromene-3-carboxylic acid in ethanol was 66.7-mg/mL. Aliquots were taken at time=0, 1, 2, 4, 8, 12, and 16 minutes and analyzed by HPLC. The natural logarithm of e.e. at each time point was determined for each aliquot. […] The natural logarithm of e.e. data is provided below in Table 1 in the row labeled “ln (e.e.).”
# [3] = 10-g in 400 mL ethanol, 25-mg/mL, t=5 minutes
smiles,measurement,setting,value
"Cc1cc(C)c2c(c1)C=C(C(=O)O)[C@H](C(F)(F)F)O2 [(R)-6,8-dimethyl-2-trifluoromethyl-2H-chromene-3-carboxylic acid]",ln (e.e.),[1]; [3],about 4.2
same,ln (e.e.),"[1]; 10-g in 400 mL ethanol, 25-mg/mL, t=105 minutes",about 1.0
CC(C)(C)c1cc2c(cc1Cl)C=C(C(=O)O)[C@H](C(F)(F)F)O2 [(R)-6-chloro-7-tert-butyl-2-trifluoromethyl-2H-chromene-3-carboxylic acid],τ,"[1]; 4.00 g enantiomer, 10.0 mg/mL in ethanol",9.08 min
same,τ,"[1]; 8.00 g enantiomer, 20.0 mg/mL in ethanol",16.38 min
same,τ,"[1]; 10.00 g enantiomer, 25.00 mg/mL in ethanol",19.68 min
same,τ,"[1]; 13.00 g enantiomer, 32.5 mg/mL in ethanol",22.57 min
same,τ,"[1]; 16.00 g enantiomer, 40.0 mg/mL in ethanol, from Example (E)",31.65 min
same,rate constant k,"[1]; 16 g in 400 mL ethanol, 40-g/L",0.0109 min⁻¹
same,τ,"[1]; 20.04 g enantiomer, 50.1 mg/mL in ethanol",31.39 min
same,ln (e.e.),"[1]; 40-g/L in ethanol, time 0 minutes",4.5
same,ln (e.e.),"[1]; 40-g/L in ethanol, time 12 minutes",4.3
same,ln (e.e.),"[1]; 40-g/L in ethanol, time 24 minutes",4.0
same,ln (e.e.),"[1]; 40-g/L in ethanol, time 41 minutes",3.6
same,ln (e.e.),"[1]; 40-g/L in ethanol, time 60 minutes",3.2
same,ln (e.e.),"[1]; 40-g/L in ethanol, time 87 minutes",2.7
same,ln (e.e.),"[1]; 40-g/L in ethanol, time 105 minutes",2.2
same,ln (e.e.),"[1]; 40-g/L in ethanol, time 135 minutes",1.6
same,ln (e.e.),"[1]; 40-g/L in ethanol, time 162 minutes",1.1
CC(C)(C)c1cc2c(cc1Cl)C=C(C(=O)O)C(C(F)(F)F)O2 [(S)- and (R)-6-chloro-7-tert-butyl-2-trifluoromethyl-2H-chromene-3-carboxylic acid],e.e. by HPLC after irradiation,[2]; irradiated continuously over 25 minutes,12%
same,e.e. by HPLC after irradiation,[2]; irradiated in 90-second intervals over 25 minutes,7.4%
CC(C)(C)c1cc2c(cc1Cl)C=C(C(=O)O)[C@@H](C(F)(F)F)O2 [(S)-6-chloro-7-tert-butyl-2-trifluoromethyl-2H-chromene-3-carboxylic acid],HPLC finding after UV irradiation,"[2]; 1.0-mg/mL in ethanol, UV 320-390 nm at 4 W/cm^2, after 30 minutes",racemic mixture
same,rate constant k1,"[2]; 40-mg/mL in ethanol, first experiment",0.0764 min⁻¹
same,rate constant k2,"[2]; 40-mg/mL in ethanol, repeated experiment",0.0787 min⁻¹
same,ln (e.e.),[2]; time 0 minutes,4.4
same,ln (e.e.),[2]; time 1 minute,4.3
same,ln (e.e.),[2]; time 2 minutes,4.2
same,ln (e.e.),[2]; time 4 minutes,4.0
same,ln (e.e.),[2]; time 8 minutes,3.8
same,ln (e.e.),[2]; time 12 minutes,3.4
same,ln (e.e.),[2]; time 16 minutes,3.3
CCc1cc(OC(F)(F)F)cc2c1O[C@@H](C(F)(F)F)C(C(=O)O)=C2 [(R)-8-ethyl-6-trifluoromethoxy-2-trifluoromethyl-2H-chromene-3-carboxylic acid],ln (e.e.),[1]; [3],about 4.3
same,ln (e.e.),"[1]; 10-g in 400 mL ethanol, 25-mg/mL, t=95 minutes",about 1.4
